The values below come from US20260014147A1, “STAT6 DEGRADERS” (Gilead Sciences, Inc., priority 2024, published 2026).

Experiment [1] has as its system Eotaxin-3 (CCL26) release in human whole blood stimulated with IL-4. The experiment can be described thus: Human Whole Blood Eotaxin-3 Assay (IL-4 stimulated, inhibition of eotaxin-3 release). It is filed as cell-based. The note with it: Homo sapiens, EC50 provided for test compounds with >80% Emax, geometric mean across assay runs and batches. On the procedure: This was a human whole blood assay using recombinant human Interleukin 4 to stimulate the blood and measuring the ability of the test compounds to inhibit eotaxin-3 release. The biological activities of the test compounds have been tested in human whole blood stimulated with IL-4 measuring Eotaxin-3 release. The test compounds were added to 384 well clear flat-bottom plate in a 4-fold serial dilution in triplicates using a liquid handler. Human whole blood stabilized in lithium-heparin tubes was added in a volume of 65 uL per well, resulting in a final DMSO concentration of 0.5%. The plate is incubated for 2 h at 37° C. under 5% CO2/95% air. Subsequently, 5 μL of recombinant human IL-4 (R&D Systems, cat #204-ILB) was added to the wells to a final concentration of 400 pM. The plate was incubated for 48 h at 37° C. under 5% CO2/95% air. The plate was spun down for 10 minutes at 500×g and 20 uL supernatant was harvested and transferred to a 384 well v-bottom plate using a liquid handler and stored at −20° C. until further analysis. 10 uL supernatant was used to measure the level of Eotaxin-3 (CCL26) using Human Eotaxin-3 MSD kit from Mesocsale (Cat #K251UEK-4). The assay was performed according to the manufacture instructions.
The data from the human whole blood eotaxin-3 assay is shown below for Examples 2q11, 2110, and 2c49 (where the effect in % is plotted against the test concentration in M on a log-scale).

Experiment [2] has as its target T1, STAT6 (endogenous, HiBiT-tagged) in HeLa LgBiT clone 4.14 cells (Homo sapiens, UniProt P42226).
T1 construct: These cells express endogenous STAT6; host or cells: HeLa LgBiT clone 4.14
T1 sequence (P42226 1-847): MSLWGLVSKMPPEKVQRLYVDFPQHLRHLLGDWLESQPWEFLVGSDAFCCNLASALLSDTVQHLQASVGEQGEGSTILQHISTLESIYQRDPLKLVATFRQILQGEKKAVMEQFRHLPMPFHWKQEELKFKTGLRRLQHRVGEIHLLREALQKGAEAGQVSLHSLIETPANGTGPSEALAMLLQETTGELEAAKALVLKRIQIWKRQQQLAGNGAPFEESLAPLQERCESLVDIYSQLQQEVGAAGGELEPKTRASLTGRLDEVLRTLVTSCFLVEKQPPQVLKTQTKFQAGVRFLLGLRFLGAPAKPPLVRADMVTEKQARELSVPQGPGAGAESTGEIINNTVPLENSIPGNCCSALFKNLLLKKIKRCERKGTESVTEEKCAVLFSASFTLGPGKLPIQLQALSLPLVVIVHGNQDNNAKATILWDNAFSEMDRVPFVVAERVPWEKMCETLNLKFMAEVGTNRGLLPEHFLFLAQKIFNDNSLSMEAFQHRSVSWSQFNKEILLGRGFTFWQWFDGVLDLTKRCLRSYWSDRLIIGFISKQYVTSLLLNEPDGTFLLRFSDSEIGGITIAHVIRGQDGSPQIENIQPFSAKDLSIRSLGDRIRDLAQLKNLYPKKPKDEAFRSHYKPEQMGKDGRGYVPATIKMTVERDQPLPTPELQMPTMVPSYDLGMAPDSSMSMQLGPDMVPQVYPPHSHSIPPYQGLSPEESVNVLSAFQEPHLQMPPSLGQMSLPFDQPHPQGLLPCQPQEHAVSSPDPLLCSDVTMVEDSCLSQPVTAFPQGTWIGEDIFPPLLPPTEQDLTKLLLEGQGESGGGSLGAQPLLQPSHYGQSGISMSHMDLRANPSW
The experiment can be described thus: STAT6 Degrader Assay (HiBiT based, HeLa LgBiT clone 4.14 cells, luminescence, DC50). Format: cell-based. To be noted: geometric mean; for DC50: DC50 provided for test compounds with >80% Emax, read-out: STAT6 degradation DC50; for Emax: Emax provided for test compounds with <80% Emax (and 2c15), read-out: STAT6 degradation Emax. The method, boiled down:
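HeLa LgBiT clone 4.14 cells carry CRISPR-inserted HiBiT on endogenous STAT6; 5000 cells/well were exposed to compound for 4-24 h at 37 °C, 5% CO2. Nano-Glo substrate added for 0.5 h; luminescence reflects remaining STAT6, with terfenadine ([…]) wells defining 100% degradation.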
A general note: With HiBiT, luminescence reflects the tagged protein that the partner subunit can reach.

By EC50 is commonly meant the concentration at which the effect is half-maximal. As a reminder, the DC50 is the midpoint of the concentration-degradation curve. As usually defined, the Emax is the greatest response seen or fitted, relative to the assay's reference.

With `C[C@@H](c1cc2c(-c3ccc(N)nc3)ccnc2n1C)N1CCC(c2ccc(C(=O)N3CCn4nc(CN5CCC(c6ccc(NC7CCC(=O)NC7=O)cc6F)CC5)cc4C3)cc2)CC1` (stereo partly drawn) [Example 2q5, 3-((4-(1-((5-(4-(1-((S)-1-(4-(6-aminopyridin-3-yl)-1-methyl-1H-pyrrolo[2,3-b]pyridin-2-yl)ethyl)-piperidin-4-yl)benzoyl)-4,5,6,7-tetrahydropyrazolo[1,5-a]pyrazin-2-yl)methyl)piperidin-4-yl)-3-fluorophenyl)-amino)piperidine-2,6-dione], a half-maximal effect in experiment [1] (EC50) was put at 2.3 nM. Besides, in experiment [2], the DC50 worked out at 1 nM. Turning to `COCc1nc2cc(-c3ccnc4c3cc([C@H](C)N3CCC(c5ccc(C(=O)N6CCC(CN7CCN(c8ncc(NC9CCC(=O)NC9=O)cc8F)C[C@H]7C)CC6)cc5)CC3)n4C)ccc2[nH]1` (stereo partly drawn) [Example 3t5], the EC50 in experiment [1] amounted to 59.5 nM. Also, in experiment [2], the 50% degradation concentration (DC50) is 6 nM. In experiment [1], `COCc1nc2cc(-c3ccnc4c3cc([C@H](C)N3CCC(c5ccc(C(=O)N6CCC(CN7CCN(c8ccc(N[C@H]9CCC(=O)NC9=O)cc8F)C[C@H]7C)CC6)cc5)CC3)n4C)ccc2[nH]1` (single isomer, unassigned) [Example 2f12] registered an EC50 of 19.7 nM. In addition, the half-maximal degradation concentration (DC50) in experiment [2] turned out to be 4.1 nM. For `C[C@@H](c1cc2c(-c3ccc(N)nc3C#N)ccnc2n1C)N1CCC(c2ccc(C(=O)N3CCC(CN4CCN(c5ccc(NC6CCC(=O)NC6=O)cc5F)CC4)CC3)cc2)CC1` (stereo partly drawn) [Example 2c22, 6-amino-3-(2-((1S)-1-(4-(4-(4-((4-(4-((2,6-dioxopiperidin-3-yl)amino)-2-fluorophenyl)-piperazin-1-yl)methyl)piperidine-1-carbonyl)phenyl)piperidin-1-yl)ethyl)-1-methyl-1H-pyrrolo[2,3-b]pyridin-4-yl) picolinonitrile] the same measures were 153 nM and 28.2 nM.

`C[C@@H]1CN(c2ccc(NC3CCC(=O)NC3=O)cc2F)CCN1CC1CCN(C(=O)c2ccc(C3CCN([C@@H](C)c4cc5c(-c6ccc(N)nc6)ccnc5n4C)CC3)cc2)CC1` (stereo partly drawn) [Example 2f2, 3-((4-((R)-4-((1-(4-(1-((S)-1-(4-(6-aminopyridin-3-yl)-1-methyl-1H-pyrrolo[2,3-b]pyridin-2-yl)ethyl)piperidin-4-yl)benzoyl)piperidin-4-yl)methyl)-3-methylpiperazin-1-yl)-3-fluorophenyl)amino)-piperidine-2,6-dione] yielded a concentration giving a half-maximal response (EC50) in experiment [1] of 37 nM. The DC50 in experiment [2] is 6.8 nM.

In experiment [1], `CO[C@@H](C)c1nc2cc(-c3ccnc4c3cc([C@H](C)N3CCC(c5ccc(C(=O)N6CCC(CN7CCN(c8ccc(NC9CCC(=O)NC9=O)cc8F)CC7)CC6)cc5)CC3)n4C)ccc2[nH]1` (stereo partly drawn) [Example 2c18, 3-((3-fluoro-4-(4-((1-(4-(1-((S)-1-(4-(2-((S)-1-methoxyethyl)-1H-benzo[d]imidazol-5-yl)-1-methyl-1H-pyrrolo[2,3-b]pyridin-2-yl)ethyl)piperidin-4-yl)benzoyl)piperidin-4-yl)methyl)piperazin-1-yl)phenyl)amino)piperidine-2,6-dione] yielded an EC50 of 39 nM. Besides, the DC50 in experiment [2] worked out at 4.8 nM.

Regarding `C[C@@H](c1cc2c(-c3ccc(N)nc3)ccnc2n1C)N1CCC(c2ccc(C(=O)N3CCn4nc(CN5CCC(c6ncc(NC7CCC(=O)NC7=O)cc6F)CC5)cc4C3)cc2)CC1` (stereo partly drawn) [Example 2q6, 3-((6-(1-((5-(4-(1-((S)-1-(4-(6-aminopyridin-3-yl)-1-methyl-1H-pyrrolo[2,3-b]pyridin-2-yl)ethyl)-piperidin-4-yl)benzoyl)-4,5,6,7-tetrahydropyrazolo[1,5-a]pyrazin-2-yl)methyl)piperidin-4-yl)-5-fluoropyridin-3-yl)amino)piperidine-2,6-dione], the EC50 in experiment [1] stood at 19.9 nM. The DC50 in experiment [2] was 5.6 nM. With `Cn1c(CN2CCC(c3ccc(C(=O)N4CCn5nc(CN6CCC(c7ccc(NC8CCC(=O)NC8=O)cc7F)CC6)cc5C4)cc3)CC2)cc2c(-c3ccc(N)nc3)ccnc21` (stereo not drawn) [Example 2q4, 3-((4-(1-((5-(4-(1-((4-(6-aminopyridin-3-yl)-1-methyl-1H-pyrrolo[2,3-b]pyridin-2-yl)methyl)-piperidin-4-yl)benzoyl)-4,5,6,7-tetrahydropyrazolo[1,5-a]pyrazin-2-yl)methyl)piperidin-4-yl)-3-fluoro-phenyl)amino)piperidine-2,6-dione], in experiment [1], the midpoint of the response, the EC50, lay at 73.5 nM. Besides, the Emax in experiment [2] lay within 70 to 80%. Turning to `COCc1nc2cc(-c3ccnc4c3cc([C@H](C)N3CCC(c5ccc(C(=O)N6CCC(CN7CCN(c8ccc(NC9CCC(=O)NC9=O)cc8F)C[C@H]7C)CC6)cc5)CC3)n4C)ccc2[nH]1` (stereo partly drawn) [Example 2f1, 3-((3-fluoro-4-((R)-4-((1-(4-(1-((S)-1-(4-(2-(methoxymethyl)-1H-benzo[d]imidazol-5-yl)-1-methyl-1H-pyrrolo[2,3-b]pyridin-2-yl)ethyl)piperidin-4-yl)benzoyl)piperidin-4-yl)methyl)-3-methylpiperazin-1-yl)phenyl)amino)piperidine-2,6-dione], in experiment [1], the midpoint of the response, the EC50, lay at 25 nM. Besides, the 50% degradation concentration (DC50) in experiment [2] is 3.4 nM. `C[C@@H](c1cc2c(-c3ccc(N)nc3)ccnc2n1C)N1CCC(c2ccc(C(=O)N3CCC(CN4CCC(c5ccc(NC6CCC(=O)NC6=O)cc5F)C(F)(F)C4)CC3)cc2)CC1` (stereo partly drawn) [Example 2m2, 3-((4-(1-((1-(4-(1-((S)-1-(4-(6-aminopyridin-3-yl)-1-methyl-1H-pyrrolo[2,3-b]pyridin-2-yl)-ethyl)piperidin-4-yl)benzoyl)piperidin-4-yl)methyl)-3,3-difluoropiperidin-4-yl)-3-fluorophenyl)amino)-piperidine-2,6-dione] had a half-maximal effective concentration (EC50) in experiment [1] of 118 nM. For the same compound, the maximum response (Emax) in experiment [2] was in the range of 60 to 70%. `COCc1nc2ccc(-c3ccnc4c3cc([C@H](C)N3CCC(c5ccc(C(=O)N6CCC(CN7CCN(c8ccc(NC9CCC(=O)NC9=O)cc8F)CC7)CC6)cc5)CC3)n4C)cc2[nH]1` (stereo partly drawn) [Example 2c16, 3-((3-fluoro-4-(4-((1-(4-(1-((S)-1-(4-(2-(methoxymethyl)-1H-benzo[d]imidazol-6-yl)-1-methyl-1H-pyrrolo[2,3-b]pyridin-2-yl)ethyl)piperidin-4-yl)benzoyl)piperidin-4-yl)methyl)piperazin-1-yl)phenyl)amino)piperidine-2,6-dione]: the half-maximal effective concentration (EC50) in experiment [1] stood at 22.6 nM. Besides, the DC50 in experiment [2] is 1.2 nM. Take `COCc1nc2cc(-c3ccnc4c3cc(CN3CCC(c5ccc(C(=O)N6CCn7nc(CN8CCC(c9ncc(NC%10CCC(=O)NC%10=O)cc9F)CC8)cc7C6)cc5)CC3)n4C)ccc2[nH]1` (stereo not drawn) [Example 2q8, 3-((5-fluoro-6-(1-((5-(4-(1-((4-(2-(methoxymethyl)-1H-benzo[d]imidazol-5-yl)-1-methyl-1H-pyrrolo[2,3-b]pyridin-2-yl)methyl)piperidin-4-yl)benzoyl)-4,5,6,7-tetrahydropyrazolo[1,5-a]pyrazin-2-yl)methyl)piperidin-4-yl)pyridin-3-yl)amino)piperidine-2,6-dione]: the EC50 in experiment [1] is 25.1 nM. Same read-out and setting: the same measure for `COc1cc(N2CCN(CC3CCN(C(=O)c4ccc(C5CCN([C@@H](C)c6cc7c(-c8ccc(N)nc8)ccnc7n6C)CC5)cc4)CC3)CC2)ccc1NC1CCC(=O)NC1=O` (stereo partly drawn) [Example 2c40, 3-((4-(4-((1-(4-(1-((S)-1-(4-(6-aminopyridin-3-yl)-1-methyl-1H-pyrrolo[2,3-b]pyridin-2-yl)ethyl)piperidin-4-yl)benzoyl)piperidin-4-yl)methyl)piperazin-1-yl)-2-methoxyphenyl)amino)piperidine-2,6-dione]: 112 nM.
